From PubChem BioAssay AID2060882 (Molecular Pharmacology Branch, DTP, NCI, 2025)

Test system: 898857-211-R-J1-PDC complex spheroids, growth % test/control
Assay: Anticancer human tumor 898857-211-R-J1-PDC patient-derived melanoma cell line growth inhibition [RAS]
Conditions: for IC50: curve of first compound; for viability, T/C: stronger effect = lower value
Procedure, shortened: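 Multi-cell-type spheroids: tumor cells plus HUVEC endothelial cells and mesenchymal stem cells. RAS-pathway inhibitors were combined with targeted agents, each dosed in half-log steps down from clinical Cmax, or from 10 microM when Cmax was unknown.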
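Note: spheroids exposed to compound for seven days before readout.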
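Throughout, for viability, T/C: 100% = DMSO vehicle control wells.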

## CCN1CCN(Cc2ccc(Nc3ncc(F)c(-c4cc(F)c5nc(C)n(C(C)C)c5c4)n3)nc2)CC1 + C#Cc1c(F)ccc2cc(O)cc(-c3ncc4c(N5CC6CCC(C5)N6)nc(OCC56CCCN5CC(F)C6)nc4c3F)c12
Second compound 0.0316 µM
  IC50: 269 nM
Second compound 0.1 µM
  IC50: 256 nM
Second compound 0.316 µM
  IC50: 235 nM
Second compound 1 µM
  IC50: 298 nM
Second compound 3.16 µM
  IC50: 196 nM
Second compound 10 µM
  IC50: 6.16 nM
Second compound 0.0316 µM, first compound 0.00316 µM
  viability, T/C: 98.6%
Second compound 0.0316 µM, first compound 0.01 µM
  viability, T/C: 87.4%
Second compound 0.0316 µM, first compound 0.0316 µM
  viability, T/C: 91.9%
Second compound 0.0316 µM, first compound 0.1 µM
  viability, T/C: 74.3%
Second compound 0.0316 µM, first compound 0.316 µM
  viability, T/C: 46%
Second compound 0.0316 µM, first compound 1 µM
  viability, T/C: 37.5%
Second compound 0.1 µM, first compound 0.00316 µM
  viability, T/C: 101%
Second compound 0.1 µM, first compound 0.01 µM
  viability, T/C: 92.6%
Second compound 0.1 µM, first compound 0.0316 µM
  viability, T/C: 96.6%
Second compound 0.1 µM, first compound 0.1 µM
  viability, T/C: 75.2%
Second compound 0.1 µM, first compound 0.316 µM
  viability, T/C: 44.4%
Second compound 0.1 µM, first compound 1 µM
  viability, T/C: 42.1%
Second compound 0.316 µM, first compound 0.00316 µM
  viability, T/C: 112%
Second compound 0.316 µM, first compound 0.01 µM
  viability, T/C: 99.5%
Second compound 0.316 µM, first compound 0.0316 µM
  viability, T/C: 96%
Second compound 0.316 µM, first compound 0.1 µM
  viability, T/C: 65.4%
Second compound 0.316 µM, first compound 0.316 µM
  viability, T/C: 44.9%
Second compound 0.316 µM, first compound 1 µM
  viability, T/C: 32.2%
Second compound 1 µM, first compound 0.00316 µM
  viability, T/C: 93%
Second compound 1 µM, first compound 0.01 µM
  viability, T/C: 101%
Second compound 1 µM, first compound 0.0316 µM
  viability, T/C: 96.5%
Second compound 1 µM, first compound 0.1 µM
  viability, T/C: 72.1%
Second compound 1 µM, first compound 0.316 µM
  viability, T/C: 51.2%
Second compound 1 µM, first compound 1 µM
  viability, T/C: 38.2%
Second compound 3.16 µM, first compound 0.00316 µM
  viability, T/C: 107%
Second compound 3.16 µM, first compound 0.01 µM
  viability, T/C: 92.3%
Second compound 3.16 µM, first compound 0.0316 µM
  viability, T/C: 91.2%
Second compound 3.16 µM, first compound 0.1 µM
  viability, T/C: 56.5%
Second compound 3.16 µM, first compound 0.316 µM
  viability, T/C: 45.9%
Second compound 3.16 µM, first compound 1 µM
  viability, T/C: 33.6%
Second compound 10 µM, first compound 0.00316 µM
  viability, T/C: 56.4%
Second compound 10 µM, first compound 0.01 µM
  viability, T/C: 45.8%
Second compound 10 µM, first compound 0.0316 µM
  viability, T/C: 32.5%
Second compound 10 µM, first compound 0.1 µM
  viability, T/C: 21.5%
Second compound 10 µM, first compound 0.316 µM
  viability, T/C: 11.3%
Second compound 10 µM, first compound 1 µM
  viability, T/C: 2.36%

## CC(=O)OC12COC1CC(O)C1(C)C(=O)C(O)C3=C(C)C(OC(=O)C(O)C(NC(=O)OC(C)(C)C)c4ccccc4)CC(O)(C(OC(=O)c4ccccc4)C21)C3(C)C (centres undefined) + CCn1c(-c2cccnc2C(C)OC)c2c3cc(ccc31)N1CCOC(CC(NC(=O)C(C(C)C)N(C)C(=O)C3(F)CCN(C(=O)C#CC(C)(C)N(C)C)CC3)C(=O)N3CCCC(N3)C(=O)OCC(C)(C)C2)C1
Second compound 0.000949 µM
  IC50: < 31.6 nM
Second compound 0.003 µM
  IC50: < 31.6 nM
Second compound 0.00949 µM
  IC50: < 31.6 nM
Second compound 0.03 µM
  IC50: < 31.6 nM
Second compound 0.0949 µM
  IC50: < 31.6 nM
Second compound 0.3 µM
  IC50: < 31.6 nM
Second compound 0.000949 µM, first compound 0.0316 µM
  viability, T/C: 10.8%
Second compound 0.000949 µM, first compound 0.1 µM
  viability, T/C: 9.24%
Second compound 0.000949 µM, first compound 0.316 µM
  viability, T/C: 8.35%
Second compound 0.000949 µM, first compound 1 µM
  viability, T/C: 12.8%
Second compound 0.000949 µM, first compound 3.16 µM
  viability, T/C: 18.6%
Second compound 0.000949 µM, first compound 10 µM
  viability, T/C: 20.4%
Second compound 0.003 µM, first compound 0.0316 µM
  viability, T/C: 10.1%
Second compound 0.003 µM, first compound 0.1 µM
  viability, T/C: 11.5%
Second compound 0.003 µM, first compound 0.316 µM
  viability, T/C: 11.4%
Second compound 0.003 µM, first compound 1 µM
  viability, T/C: 12.4%
Second compound 0.003 µM, first compound 3.16 µM
  viability, T/C: 14%
Second compound 0.003 µM, first compound 10 µM
  viability, T/C: 20.9%
Second compound 0.00949 µM, first compound 0.0316 µM
  viability, T/C: 7.95%
Second compound 0.00949 µM, first compound 0.1 µM
  viability, T/C: 8.82%
Second compound 0.00949 µM, first compound 0.316 µM
  viability, T/C: 13.5%
Second compound 0.00949 µM, first compound 1 µM
  viability, T/C: 11.8%
Second compound 0.00949 µM, first compound 3.16 µM
  viability, T/C: 12.9%
Second compound 0.00949 µM, first compound 10 µM
  viability, T/C: 20.2%
Second compound 0.03 µM, first compound 0.0316 µM
  viability, T/C: 8.31%
Second compound 0.03 µM, first compound 0.1 µM
  viability, T/C: 10.6%
Second compound 0.03 µM, first compound 0.316 µM
  viability, T/C: 9.59%
Second compound 0.03 µM, first compound 1 µM
  viability, T/C: 13.5%
Second compound 0.03 µM, first compound 3.16 µM
  viability, T/C: 16.6%
Second compound 0.03 µM, first compound 10 µM
  viability, T/C: 15.3%
Second compound 0.0949 µM, first compound 0.0316 µM
  viability, T/C: 8.5%
Second compound 0.0949 µM, first compound 0.1 µM
  viability, T/C: 10.2%
Second compound 0.0949 µM, first compound 0.316 µM
  viability, T/C: 10.7%
Second compound 0.0949 µM, first compound 1 µM
  viability, T/C: 11.4%
Second compound 0.0949 µM, first compound 3.16 µM
  viability, T/C: 15.7%
Second compound 0.0949 µM, first compound 10 µM
  viability, T/C: 14.4%
Second compound 0.3 µM, first compound 0.0316 µM
  viability, T/C: 8.04%
Second compound 0.3 µM, first compound 0.1 µM
  viability, T/C: 7.55%
Second compound 0.3 µM, first compound 0.316 µM
  viability, T/C: 8.89%
Second compound 0.3 µM, first compound 1 µM
  viability, T/C: 9.35%
Second compound 0.3 µM, first compound 3.16 µM
  viability, T/C: 11.3%
Second compound 0.3 µM, first compound 10 µM
  viability, T/C: 7.88%
